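A five-concentration, 48-hour dose response in 96-well plates underlies each endpoint, interpolated linearly between surrounding concentrations. Here, GI50 denotes the concentration required for 50% inhibition of growth. TGI: total growth inhibition.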

Drawing on PubChem BioAssay (NCI), this text covers TGI and GI50 for nine compounds.

Test systems include SF-539 CNS; HL-60(TB) leukemia; OVCAR-8 ovarian; SR leukemia; CAKI-1 renal; SNB-19 CNS; NCI-H522 lung; LOX IMVI melanoma; MALME-3M melanoma; A498 renal.
Common to all, as to experiment: NCI tumour cell line growth inhibition, 48 h

As to `CN(C)C(n1cc2c(c1)-c1ccc(Cl)cc1C(c1ccccc1F)=NC2)n1cc2c(c1)-c1ccc(Cl)cc1C(c1ccccc1F)=NC2`, the TGI with SF-539 CNS, in the assay on HL-60(TB) leukemia, in the assay on OVCAR-8 ovarian, with SR leukemia, in the assay with CAKI-1 renal and with SNB-19 CNS was greater than 100 µM throughout. Moreover, the TGI in the assay with NCI-H522 lung is greater than 100 µM; in the assay with LOX IMVI melanoma, 47.9 µM; in the assay with MALME-3M melanoma it was greater than 100 µM; in the assay on A498 renal it was greater than 100 µM.
Regarding `CCCN1C(=O)N(CCC)C2C1NC(=S)N2/N=C/C=C/c1ccccc1OC` (centres undefined), the GI50 is 0.33 µM in the assay with SF-539 CNS; 0.337 µM in the assay on HL-60(TB) leukemia; 1.56 µM in the assay with OVCAR-8 ovarian; 0.326 µM in the assay with SR leukemia; 0.508 µM in the assay with CAKI-1 renal; 1.66 µM in the assay on SNB-19 CNS. The GI50 was 0.336 µM with NCI-H522 lung, 0.627 µM with LOX IMVI melanoma, 0.694 µM in the assay with MALME-3M melanoma and 0.203 µM in the assay with A498 renal. Further, the TGI with SF-539 CNS was 2.31 µM; with HL-60(TB) leukemia it was 1.71 µM; with OVCAR-8 ovarian it was greater than 62.6 µM; with SR leukemia, greater than 35.1 µM; in the assay with CAKI-1 renal, 97.5 µM; in the assay on SNB-19 CNS, greater than 100 µM. The TGI in the assay on NCI-H522 lung was 12.7 µM; in the assay on LOX IMVI melanoma it was 21.3 µM; in the assay with MALME-3M melanoma, 82.1 µM; in the assay with A498 renal it was 1 µM.
Consider `CN1CCOC(c2ccccc2)O1` (centres undefined), for which the TGI in the assay with SF-539 CNS, with HL-60(TB) leukemia, in the assay on OVCAR-8 ovarian, in the assay with SR leukemia, with CAKI-1 renal and in the assay with SNB-19 CNS was greater than 100 µM in each case. Also, the TGI in the assay with NCI-H522 lung, in the assay with LOX IMVI melanoma, in the assay with MALME-3M melanoma and in the assay with A498 renal was greater than 100 µM each time.
In the case of `COc1cc(-c2cc(-c3cc4c([nH]c5ccccc54)c(-c4cc(OC)c(OC)c(OC)c4)n3)cc(-c3ccccc3)n2)cc(OC)c1OC`, the GI50 in the assay with SF-539 CNS was 4.97 µM; with HL-60(TB) leukemia, 3.09 µM; with OVCAR-8 ovarian, 4.01 µM; in the assay on SR leukemia, 3.56 µM; in the assay on CAKI-1 renal it was 5.67 µM; in the assay with SNB-19 CNS, 9.92 µM. Besides, the GI50 with NCI-H522 lung is 2.32 µM; with LOX IMVI melanoma it was 4.42 µM; in the assay with MALME-3M melanoma, 6.3 µM; in the assay with A498 renal, 1.64 µM. Moreover, the TGI in the assay on SF-539 CNS was 44.4 µM; in the assay on HL-60(TB) leukemia, 11.3 µM; with OVCAR-8 ovarian, 43.4 µM; in the assay with SR leukemia, greater than 100 µM; with CAKI-1 renal it was greater than 100 µM; in the assay with SNB-19 CNS, greater than 100 µM. Also, the TGI in the assay with NCI-H522 lung was 8.01 µM; in the assay on LOX IMVI melanoma, 26.5 µM; in the assay on MALME-3M melanoma, 70.9 µM; in the assay with A498 renal it was 7.96 µM.
For the compound `COc1c(OC[C@H](O)CN2CCOCC2)ccc2c3n(c(=NC(=O)c4cccnc4C)nc12)CCN3`, the GI50 in the assay on SF-539 CNS is 0.543 µM; in the assay on HL-60(TB) leukemia, 0.0538 µM; in the assay on OVCAR-8 ovarian, greater than 50 µM; with SR leukemia, greater than 50 µM; in the assay with CAKI-1 renal it was 0.859 µM; in the assay on SNB-19 CNS, 5.1 µM. Also, the GI50 with NCI-H522 lung was greater than 50 µM; with LOX IMVI melanoma, 1.57 µM; with MALME-3M melanoma, 0.982 µM; in the assay with A498 renal it was 0.167 µM. The TGI in the assay on SF-539 CNS was 9.91 µM; with HL-60(TB) leukemia, greater than 50 µM; in the assay with OVCAR-8 ovarian, greater than 50 µM; in the assay with SR leukemia, greater than 50 µM; with CAKI-1 renal, greater than 50 µM; in the assay with SNB-19 CNS, greater than 50 µM. In addition, the TGI in the assay with NCI-H522 lung was greater than 50 µM; in the assay with LOX IMVI melanoma, greater than 50 µM; with MALME-3M melanoma it was greater than 50 µM; in the assay with A498 renal, 1.85 µM.
As to `COc1ccc(-c2nn(-c3ccc(NC(=O)c4ccc(Cl)c(Cl)c4)cc3)cc2-c2ccncc2)cc1Cl`, the GI50 in the assay with SF-539 CNS was 1.55 µM; with HL-60(TB) leukemia, 2.76 µM; in the assay on OVCAR-8 ovarian, greater than 25.8 µM; in the assay with SR leukemia it was 2.29 µM; in the assay on CAKI-1 renal it was 1.33 µM; in the assay with SNB-19 CNS it was 4.2 µM. The GI50 was 0.951 µM with LOX IMVI melanoma, 5.88 µM in the assay on MALME-3M melanoma and 1.26 µM in the assay with A498 renal. Also, the TGI with SF-539 CNS is greater than 19 µM; in the assay with HL-60(TB) leukemia it was greater than 50 µM; with OVCAR-8 ovarian, greater than 50 µM; in the assay with SR leukemia, greater than 50 µM; with CAKI-1 renal, 5.26 µM; with SNB-19 CNS, greater than 50 µM. In addition, the TGI with NCI-H522 lung was greater than 46.3 µM; in the assay with LOX IMVI melanoma, 2.17 µM; with MALME-3M melanoma, greater than 50 µM; in the assay on A498 renal, 4.52 µM.
As to `C[C@@H]1CC[C@@H]2[C@@H]1[C@H](OC(=O)/C=C/c1ccccc1)[C@]1(C3CCCCC3)C[C@@H](OC(=O)CO)[C@@]2(C)O1`, the GI50 in the assay on SF-539 CNS is 5.48 µM; in the assay with HL-60(TB) leukemia it was 2.75 µM; with OVCAR-8 ovarian it was 0.513 µM; in the assay on SR leukemia, 2.6 µM; with CAKI-1 renal, 0.0347 µM; with SNB-19 CNS, 3.94 µM. Further, the GI50 is 2.4 µM in the assay on NCI-H522 lung, 1.67 µM in the assay on LOX IMVI melanoma, 2.48 µM in the assay with MALME-3M melanoma and 0.0191 µM in the assay with A498 renal. Further, the TGI was 18.5 µM in the assay on SF-539 CNS; 6.43 µM with HL-60(TB) leukemia; 13 µM with OVCAR-8 ovarian; 6.9 µM in the assay on SR leukemia; 11 µM with CAKI-1 renal; 13.6 µM with SNB-19 CNS. For the same compound, the TGI with NCI-H522 lung worked out at 6.75 µM; in the assay on LOX IMVI melanoma, 3.27 µM; in the assay on MALME-3M melanoma, 7.21 µM; in the assay with A498 renal it was 0.0572 µM.
Turning to `CCC(C)COC(=O)c1ccc(N=Cc2ccc(C=Nc3ccc(C(=O)OCC(C)CC)cc3)cc2)cc1` (centres undefined), the TGI in the assay with SF-539 CNS, with HL-60(TB) leukemia, with OVCAR-8 ovarian, in the assay with SR leukemia, in the assay on CAKI-1 renal and with SNB-19 CNS was greater than 100 µM each time. The TGI with NCI-H522 lung, in the assay on LOX IMVI melanoma, in the assay on MALME-3M melanoma and in the assay on A498 renal was greater than 100 µM each time.
Take `CCOc1ccc(NC(=O)C(=O)CC(=O)c2c(C)n([O-])c3ccccc3[n+]2=O)cc1`: the TGI in the assay on SF-539 CNS, with HL-60(TB) leukemia, with OVCAR-8 ovarian, in the assay on SR leukemia, in the assay with CAKI-1 renal and in the assay on SNB-19 CNS was greater than 100 µM in each case. Besides, the TGI in the assay on NCI-H522 lung, in the assay with LOX IMVI melanoma, with MALME-3M melanoma and with A498 renal was greater than 100 µM throughout.
